# Measurements as given in ChEMBL document CHEMBL3046070, “New N-arylamino biquinoline derivatives: microwave-assisted synthesis and their antimicrobial activities” (2013).
# Tests used:
# Assay type in all cases: functional
# [1] = system: Vibrio cholerae; assay: Antibacterial activity against Vibrio cholerae MTCC 3906 assessed as growth inhibition after overnight incubation by NCCLS broth microdilution method
# [2] = system: Aspergillus fumigatus; assay: Antifungal activity against Aspergillus fumigatus MTCC 3008 assessed as growth inhibition after overnight incubation by NCCLS broth microdilution method
# [3] = system: Clostridium tetani; assay: Antibacterial activity against Clostridium tetani MTCC 449 assessed as growth inhibition after overnight incubation by NCCLS broth microdilution method
# [4] = system: Streptococcus pneumoniae; assay: Antibacterial activity against Streptococcus pneumoniae MTCC 1936 assessed as growth inhibition after overnight incubation by NCCLS broth microdilution method
# [5] = system: Bacillus subtilis; assay: Antibacterial activity against Bacillus subtilis MTCC 441 assessed as growth inhibition after overnight incubation by NCCLS broth microdilution method
# [6] = system: Salmonella typhi; assay: Antibacterial activity against Salmonella enterica subsp. enterica serovar Typhi MTCC 98 assessed as growth inhibition after overnight incubation by NCCLS broth microdilution method
# [7] = system: Escherichia coli; assay: Antibacterial activity against Escherichia coli MTCC 443 assessed as growth inhibition after overnight incubation by NCCLS broth microdilution method
# [8] = system: Candida albicans; assay: Antifungal activity against Candida albicans MTCC 227 assessed as growth inhibition after overnight incubation by NCCLS broth microdilution method
Compound,MIC [1] [µg/mL],MIC [2] [µg/mL],MIC [3] [µg/mL],MIC [4] [µg/mL],MIC [5] [µg/mL],MIC [6] [µg/mL],MIC [7] [µg/mL],MIC [8] [µg/mL]
CCOC(=O)C1=C(N)N(Nc2ccccc2)C2=C(C(=O)CC(C)(C)C2)C1c1cc2cc(Cl)ccc2nc1Cl (stereo not given),100,250,200,100,200,250,125,1000
CCOC(=O)C1=C(N)N(Nc2ccc(Cl)cc2)C2=C(C(=O)CC(C)(C)C2)C1c1cc2cc(Cl)ccc2nc1Cl (stereo not given),250,500,250,500,500,250,250,1000
CCOC(=O)C1=C(N)N(Nc2ccc(OC)cc2)C2=C(C(=O)CC(C)(C)C2)C1c1cc2ccccc2nc1Cl (stereo not given),200,500,100,200,250,200,50,250
CCOC(=O)C1=C(N)N(Nc2ccccc2)C2=C(C(=O)CC(C)(C)C2)C1c1cc2cc(C)ccc2nc1Cl (stereo not given),100,> 1000,500,250,500,250,100,500
COC1=CC(=O)C[C@@H](C)[C@]12Oc1c(Cl)c(OC)cc(OC)c1C2=O [GRISEOFULVIN],–,100,–,–,–,–,–,500
CCOC(=O)C1=C(N)N(Nc2ccc(Br)cc2)C2=C(C(=O)CC(C)(C)C2)C1c1cc2ccccc2nc1Cl (stereo not given),500,> 1000,500,25,250,50,100,> 1000
CCOC(=O)C1=C(N)N(Nc2ccc(OC)cc2)C2=C(C(=O)CC(C)(C)C2)C1c1cc2cc(OC)ccc2nc1Cl (stereo not given),250,500,250,250,250,200,200,1000
CCOC(=O)C1=C(N)N(Nc2ccc(Cl)cc2)C2=C(C(=O)CC(C)(C)C2)C1c1cc2ccccc2nc1Cl (stereo not given),250,250,125,200,200,250,200,1000
CCOC(=O)C1=C(N)N(Nc2ccc(OC)cc2)C2=C(C(=O)CC(C)(C)C2)C1c1cc2cc(C)ccc2nc1Cl (stereo not given),250,500,250,125,250,100,250,250
CCOC(=O)C1=C(N)N(Nc2ccc(C)cc2)C2=C(C(=O)CC(C)(C)C2)C1c1cc2cc(C)ccc2nc1Cl (stereo not given),500,> 1000,500,250,250,500,250,1000
CCOC(=O)C1=C(N)N(Nc2ccc(C)cc2)C2=C(C(=O)CC(C)(C)C2)C1c1cc2ccccc2nc1Cl (stereo not given),125,> 1000,500,250,500,250,250,> 1000
CCOC(=O)C1=C(N)N(Nc2ccc(Cl)cc2)C2=C(C(=O)CC(C)(C)C2)C1c1cc2cc(C)ccc2nc1Cl (stereo not given),250,> 1000,200,500,500,200,62.5,500
CCOC(=O)C1=C(N)N(Nc2ccc(F)cc2)C2=C(C(=O)CC(C)(C)C2)C1c1cc2cc(Cl)ccc2nc1Cl (stereo not given),500,> 1000,250,500,500,250,200,1000
CCOC(=O)C1=C(N)N(Nc2ccc(C)cc2)C2=C(C(=O)CC(C)(C)C2)C1c1cc2cc(OC)ccc2nc1Cl (stereo not given),500,> 1000,125,100,200,62.5,125,500
CCOC(=O)C1=C(N)N(Nc2ccc(F)cc2)C2=C(C(=O)CC(C)(C)C2)C1c1cc2ccccc2nc1Cl (stereo not given),200,500,200,200,200,100,100,250
GENTAMICIN,5,–,5,0.5,1,5,0.05,–
